Like-named read-outs stand apart in the source and are kept apart here.
Biological target: T1, Cbl-B (Homo sapiens, UniProt Q13191)
T1 construct: MSD-Based Assay for Degradation of Cbl-B in THP-1 Cells; endogenous in cells; host or cells: THP-1 (title) / Jurkat (protocol text)
Experiment: MSD-based assay for degradation of Cbl-B in THP-1 cells
Type: cell-based
Summary of the method: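 Reported Dmax bins are A >70%, B 50–70%, C 30–50% and D <30%, from an electrochemiluminescence (MSD) sandwich assay of Cbl-B in cell lysates. THP-1 cells were exposed to compounds for 24 hours before lysis.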

[1] = Cbl-B degradation, Jurkat cells seeded (heading: THP-1 cells), 24 hours incubation, MSD readout
[2] = Cbl-B degradation, Jurkat cells seeded (heading: THP-1 cells), 24 hours incubation, MSD readout, read-out: Dmax

T1 sequence (Q13191 whole entry): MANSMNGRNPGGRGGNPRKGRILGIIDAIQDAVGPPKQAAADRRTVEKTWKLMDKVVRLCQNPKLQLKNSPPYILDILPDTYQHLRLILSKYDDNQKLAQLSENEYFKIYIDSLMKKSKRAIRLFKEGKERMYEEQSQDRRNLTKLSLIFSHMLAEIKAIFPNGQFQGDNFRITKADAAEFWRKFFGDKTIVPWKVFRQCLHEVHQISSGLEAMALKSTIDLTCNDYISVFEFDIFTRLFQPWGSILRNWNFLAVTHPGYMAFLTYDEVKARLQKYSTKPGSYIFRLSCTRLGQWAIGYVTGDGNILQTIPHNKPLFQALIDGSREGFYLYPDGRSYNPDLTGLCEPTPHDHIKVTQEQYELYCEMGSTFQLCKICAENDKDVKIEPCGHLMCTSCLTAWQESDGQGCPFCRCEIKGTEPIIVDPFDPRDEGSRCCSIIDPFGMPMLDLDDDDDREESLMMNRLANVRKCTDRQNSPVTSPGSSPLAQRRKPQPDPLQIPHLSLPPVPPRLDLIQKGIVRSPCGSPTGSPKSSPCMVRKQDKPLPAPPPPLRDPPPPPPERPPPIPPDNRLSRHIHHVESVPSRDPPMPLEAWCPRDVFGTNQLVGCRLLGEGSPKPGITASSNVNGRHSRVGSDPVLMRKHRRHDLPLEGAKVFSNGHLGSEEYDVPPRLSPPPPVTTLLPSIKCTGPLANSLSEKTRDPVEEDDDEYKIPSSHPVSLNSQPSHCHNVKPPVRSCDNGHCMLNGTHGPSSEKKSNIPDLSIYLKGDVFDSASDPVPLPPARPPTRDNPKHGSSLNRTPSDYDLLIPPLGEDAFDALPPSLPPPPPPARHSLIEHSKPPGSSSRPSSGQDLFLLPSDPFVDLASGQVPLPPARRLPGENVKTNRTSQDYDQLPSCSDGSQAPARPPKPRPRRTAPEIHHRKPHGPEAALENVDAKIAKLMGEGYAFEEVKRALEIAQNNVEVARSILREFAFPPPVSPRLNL

DC50 [1] | Dmax [2] | Compound | Dmax (THP-1)
< 30 nM | > 70% | CO[C@H]1C[C@](c2cccc(-n3cc4c(C(F)(F)F)cc(CN5CCC(OCCOCc6ccc(CN7CCN(c8ccc9c(c8)CN([C@H]8CCC(=O)NC8=O)C9=O)CC7)cc6)CC5)cn4c3=O)c2)(c2nncn2C)C1 [Compound 222] | –
30 to 300 nM | 50 to 70% | Cn1cnnc1[C@@H](c1cccc(-n2cc3c(C(F)(F)F)cc(CN4CCN(CCc5ccc(C6CCN(c7ccc8c(c7)CN([C@@H]7CCC(=O)NC7=O)C8=O)CC6)cc5)CC4)cn3c2=O)c1)C1CCC1 [Compound 227] | –
< 30 nM | – | Cn1cnnc1CC1(c2cccc(-n3cc4c(C(F)(F)F)cc(CN5CCN(CCc6ccc(C7CCN(c8ccc9c(c8)CN([C@H]8CCC(=O)NC8=O)C9=O)CC7)cc6)CC5)cn4c3=O)c2)COC1 [Compound 230] | –
< 30 nM | 50 to 70% | CN(CC1CCN(Cc2cc(C(F)(F)F)c3cn(-c4cccc(C5(Cc6nncn6C)COC5)c4)c(=O)n3c2)CC1)C(=O)c1ccc(C2CCN(c3ccc4c(c3)CN([C@@H]3CCC(=O)NC3=O)C4=O)CC2)cc1 [Compound 241] | –
< 30 nM | > 70% | CN(CC1CCN(Cc2cc(C(F)(F)F)c3cn(-c4cccc(C5(Cc6nncn6C)COC5)c4)c(=O)n3c2)CC1)C(=O)c1ccc(C2CCN(c3ccc4c(c3)CN([C@H]3CCC(=O)NC3=O)C4=O)CC2)cc1 [Compound 242] | –
30 to 300 nM | > 70% | CO[C@H]1C[C@](c2cccc(-n3cc4c(C(F)(F)F)cc(CN5CCN(CCc6ccc(N7CCN(c8ccc9c(c8)CN([C@@H]8CCC(=O)NC8=O)C9=O)CC7)cc6)CC5)cn4c3=O)c2)(c2nncn2C)C1 [Compound 251] | –
< 30 nM | > 70% | CO[C@H]1C[C@](c2cccc(-n3cc4c(C(F)(F)F)cc(CN5CCN(CCc6ccc(N7CCN(c8ccc9c(c8)CN([C@H]8CCC(=O)NC8=O)C9=O)CC7)cc6)CC5)cn4c3=O)c2)(c2nncn2C)C1 [Compound 252] | –
30 to 300 nM | 30 to 50% | Cn1cnnc1CC1(c2cccc(-n3cc4c(C(F)(F)F)cc(CN5CCC(CCN6CCC(CC7CCN(c8ccc9c(c8)CN([C@H]8CCC(=O)NC8=O)C9=O)CC7)CC6)CC5)cn4c3=O)c2)COC1 [Compound 260] | –

Second part, the compound before the results:

Compound | DC50 [1] | Dmax [2] | Dmax (THP-1)
CO[C@H]1C[C@](c2cccc(-n3cc4c(C(F)(F)F)cc(CN5CCC(COCc6ccc(CN7CCN(c8ccc9c(c8)CN([C@@H]8CCC(=O)NC8=O)C9=O)CC7)cc6)CC5)cn4c3=O)c2)(c2nncn2C)C1 [Compound 223] | 30 to 300 nM | 30 to 50% | –
CO[C@H]1C[C@](c2cccc(-n3cc4c(C(F)(F)F)cc(CN5CCC(COCc6ccc(CN7CCN(c8ccc9c(c8)CN([C@H]8CCC(=O)NC8=O)C9=O)CC7)cc6)CC5)cn4c3=O)c2)(c2nncn2C)C1 [Compound 224] | < 30 nM | 50 to 70% | –
Cn1cnnc1[C@@H](c1cccc(-n2cc3c(C(F)(F)F)cc(CN4CCC[C@H](COCc5ccc(CN6CCN(c7ccc8c(c7)CN([C@@H]7CCC(=O)NC7=O)C8=O)CC6)cc5)C4)cn3c2=O)c1)C1CCC1 [Compound 235] | – | – | 30 to 50%
Cn1cnnc1[C@@H](c1cccc(-n2cc3c(C(F)(F)F)cc(CN4CCC(OC(=O)N5CCC(CN6CCN(c7ccc8c(c7)CN([C@@H]7CCC(=O)NC7=O)C8=O)CC6)CC5)CC4)cn3c2=O)c1)C1CCC1 [Compound 237] | 30 to 300 nM | – | 50 to 70%
Cn1cnnc1[C@@H](c1cccc(-n2cc3c(C(F)(F)F)cc(CN4CCC(OC(=O)N5CCC(CN6CCN(c7ccc8c(c7)CN([C@H]7CCC(=O)NC7=O)C8=O)CC6)CC5)CC4)cn3c2=O)c1)C1CCC1 [Compound 238] | < 30 nM | – | > 70%
Cn1cnnc1CC1(c2cccc(-n3cc4c(C(F)(F)F)cc(CN5CCC(CC(=O)N6CCC(CN7CCN(c8ccc9c(c8)CN([C@@H]8CCC(=O)NC8=O)C9=O)CC7)CC6)CC5)cn4c3=O)c2)COC1 [Compound 255] | 30 to 300 nM | > 70% | –
Cn1cnnc1CC1(c2cccc(-n3cc4c(C(F)(F)F)cc(CN5CCC(CC(=O)N6CCC(CN7CCN(c8ccc9c(c8)CN([C@H]8CCC(=O)NC8=O)C9=O)CC7)CC6)CC5)cn4c3=O)c2)COC1 [Compound 256] | < 30 nM | – | > 70%
Cn1cnnc1CC1(c2cccc(-n3cc4c(C(F)(F)F)cc(CN5CCC(C6CCN(C(=O)c7ccc(N8CCN(c9ccc%10c(c9)CN([C@@H]9CCC(=O)NC9=O)C%10=O)CC8)cc7)CC6)CC5)cn4c3=O)c2)COC1 [Compound 261] | < 30 nM | – | > 70%
Cn1cnnc1CC1(c2cccc(-n3cc4c(C(F)(F)F)cc(CN5CCC(C6CCN(C(=O)c7ccc(N8CCN(c9ccc%10c(c9)CN([C@H]9CCC(=O)NC9=O)C%10=O)CC8)cc7)CC6)CC5)cn4c3=O)c2)COC1 [Compound 262] | < 30 nM | – | > 70%
